Test system: Mäusen
Assay: step down passive avoidance test (improvement of memory performance)
Type: in vivo, Mäuse
Conditions: Mus musculus, ip; mice, i.p. within 10 s after foot shock; retest after 24 h; compared with solvent controls; read-out: Dosis, bei der sich eine Verbesserung der Gedächtnisleistung zeigen lässt
Source text: Zur unmittelbaren Messung der Verbesserung der Gedächtnisleistung wird ein anderer passiver Vermeidungstest (step down passive avoidance test, Psychopharmacol. 63, 297-300 [1979]) verwendet: • Die Testvorrichtung besteht aus einer mit Tageslicht normal beleuchteten Box (50 x 50 x 50 cm) mit einem elektrisch leitenden Gitterrost, dessen Gitterstäbe (6 mm Durchmesser) in einem Abstand von jeweils 13 mm angeordnet sind. In der Mitte des Gitterrostes ist eine hölzerne Plattform (10 mm Höhe, 67 mm Durchmesser) angebracht, welche von einer Plastikröhre (20 cm hoch, 68 mm innerer Durchmesser) umgeben ist. Zur Durchführung des Trainings werden Gruppen von jeweils 30 männlichen Mäusen mit einem Körpergewicht von 20-22g verwendet, indem jeweils ein Tier auf die von der Plastikröhre umgebene Plattform gesetzt, nach 10 Sekunden die Plastikröhre entfernt und die Zeitdauer gemessen wird, welche das Tier zum Hinabsteigen und Berühren des Gitterrostes mit allen 4 Pfoten benötigt. Wenn alle 4 Pfoten den Gitterrost berühren, wird ein Fussschock (1 mA, 50 Hz, 1 Sekunde) verabreicht. Innerhalb von 10 Sekunden nach Verabreichung des Fussschocks werden die Testsubstanzen in Dosen von 3 mg/kg, 10 mg/kg und 30 mg/kg (für jede Dosis werden 30 Mäuse verwendet) als Lösung in physiologischer NaCl-Lösung oder deren Lösungsmittel (physiologische Natriumchloridlösung = Placebo) intraperitoneal verabreicht. […]

`NC(=O)CNC(=O)CNC(=O)CN1CCCC1=O` [N-[(2-Oxo-1-pyrrolidinyl)-acetyl]-glycyl-glycinamid] gave a minimal effective dose of 10 mg/kg.

Reference: patent publication EP0115472A2, “Pyrrolidinon derivatives and process for their preparation” (CIBA-GEIGY AG, priority 1983, dated 1984)
